From ChEMBL document CHEMBL1133774, “'3+1' mixed-ligand oxotechnetium(V) complexes with affinity for melanoma: synthesis and evaluation in vitro and in vivo” (J Med Chem, 2000)

Test: Partition coefficient of the unprotonated free amine (logP)
Type: physicochemical
Conditions: octanol/water

Substance	logP
N-methyl-3-azapentane-1,5-dithiol complex [listing 1 of 3 here]	1.7
N-methyl-3-azapentane-1,5-dithiol complex [listing 2 of 3 here]	2.7
N-methyl-3-azapentane-1,5-dithiol complex [listing 3 of 3 here]	3.6

Test: Biodistribution after 1 hour of postinjection in blood
Type: ADME, organism-based
Conditions: in vivo

Substance	ID/g
N-methyl-3-azapentane-1,5-dithiol complex [listing 1 of 3 here]	2.08%
N-methyl-3-azapentane-1,5-dithiol complex [listing 2 of 3 here]	3.49%
N-methyl-3-azapentane-1,5-dithiol complex [listing 3 of 3 here]	3.28%

Test: Biodistribution after 1 hour of postinjection in brain
Type: ADME, organism-based
Conditions: in vivo

Substance	ID/g
N-methyl-3-azapentane-1,5-dithiol complex [listing 1 of 3 here]	0.18%
N-methyl-3-azapentane-1,5-dithiol complex [listing 2 of 3 here]	0.24%
N-methyl-3-azapentane-1,5-dithiol complex [listing 3 of 3 here]	0.32%

Test: Biodistribution after 1 hour of postinjection in heart
Type: ADME, organism-based
Conditions: in vivo

Substance	ID/g
N-methyl-3-azapentane-1,5-dithiol complex [listing 1 of 3 here]	1.84%
N-methyl-3-azapentane-1,5-dithiol complex [listing 2 of 3 here]	1.74%
N-methyl-3-azapentane-1,5-dithiol complex [listing 3 of 3 here]	2.09%

Test: Biodistribution after 1 hour of postinjection in kidney
Type: ADME, organism-based
Conditions: in vivo

Substance	ID/g
N-methyl-3-azapentane-1,5-dithiol complex [listing 1 of 3 here]	17.9%
N-methyl-3-azapentane-1,5-dithiol complex [listing 2 of 3 here]	13%
N-methyl-3-azapentane-1,5-dithiol complex [listing 3 of 3 here]	24%

Test: Biodistribution after 1 hour of postinjection in liver
Type: ADME, organism-based
Conditions: in vivo

Substance	ID/g
N-methyl-3-azapentane-1,5-dithiol complex [listing 1 of 3 here]	27.3%
N-methyl-3-azapentane-1,5-dithiol complex [listing 2 of 3 here]	7.11%
N-methyl-3-azapentane-1,5-dithiol complex [listing 3 of 3 here]	16.6%

Test: Biodistribution after 1 hour of postinjection in lungs
Type: ADME, organism-based, Lung
Conditions: in vivo

Substance	ID/g
N-methyl-3-azapentane-1,5-dithiol complex [listing 1 of 3 here]	2.73%
N-methyl-3-azapentane-1,5-dithiol complex [listing 2 of 3 here]	5.73%
N-methyl-3-azapentane-1,5-dithiol complex [listing 3 of 3 here]	13.2%

Test: Biodistribution after 1 hour of postinjection in melanoma
Type: ADME, organism-based
Conditions: in vivo

Substance	ID/g
N-methyl-3-azapentane-1,5-dithiol complex [listing 1 of 3 here]	3.23%
N-methyl-3-azapentane-1,5-dithiol complex [listing 2 of 3 here]	2.55%
N-methyl-3-azapentane-1,5-dithiol complex [listing 3 of 3 here]	2.88%

Test: Biodistribution after 1 hour of postinjection in muscle
Type: ADME, organism-based, Muscle tissue
Conditions: in vivo

Substance	ID/g
N-methyl-3-azapentane-1,5-dithiol complex [listing 1 of 3 here]	0.57%
N-methyl-3-azapentane-1,5-dithiol complex [listing 2 of 3 here]	0.78%

Test: Biodistribution after 1 hour of postinjection in spleen
Type: ADME, organism-based
Conditions: in vivo

Substance	ID/g
N-methyl-3-azapentane-1,5-dithiol complex [listing 1 of 3 here]	3.44%
N-methyl-3-azapentane-1,5-dithiol complex [listing 2 of 3 here]	2.39%
N-methyl-3-azapentane-1,5-dithiol complex [listing 3 of 3 here]	6.04%

Test: Biodistribution after 6 hours of postinjection in blood
Type: ADME, organism-based
Conditions: in vivo

Substance	ID/g
N-methyl-3-azapentane-1,5-dithiol complex [listing 1 of 3 here]	1.35%
N-methyl-3-azapentane-1,5-dithiol complex [listing 2 of 3 here]	2.05%
N-methyl-3-azapentane-1,5-dithiol complex [listing 3 of 3 here]	1.3%

Test: Biodistribution after 6 hours of postinjection in brain
Type: ADME, organism-based
Conditions: in vivo

Substance	ID/g
N-methyl-3-azapentane-1,5-dithiol complex [listing 1 of 3 here]	0.14%
N-methyl-3-azapentane-1,5-dithiol complex [listing 3 of 3 here]	0.13%

Test: Biodistribution after 6 hours of postinjection in heart
Type: ADME, organism-based
Conditions: in vivo

Substance	ID/g
N-methyl-3-azapentane-1,5-dithiol complex [listing 1 of 3 here]	0.84%
N-methyl-3-azapentane-1,5-dithiol complex [listing 2 of 3 here]	1.15%
N-methyl-3-azapentane-1,5-dithiol complex [listing 3 of 3 here]	0.86%

Test: Biodistribution after 6 hours of postinjection in kidney
Type: ADME, organism-based
Conditions: in vivo

Substance	ID/g
N-methyl-3-azapentane-1,5-dithiol complex [listing 1 of 3 here]	17.9%
N-methyl-3-azapentane-1,5-dithiol complex [listing 2 of 3 here]	10.1%
N-methyl-3-azapentane-1,5-dithiol complex [listing 3 of 3 here]	12.9%

Test: Biodistribution after 6 hours of postinjection in liver
Type: ADME, organism-based
Conditions: in vivo

Substance	ID/g
N-methyl-3-azapentane-1,5-dithiol complex [listing 1 of 3 here]	18.7%
N-methyl-3-azapentane-1,5-dithiol complex [listing 2 of 3 here]	6.1%
N-methyl-3-azapentane-1,5-dithiol complex [listing 3 of 3 here]	7.23%

Test: Biodistribution after 6 hours of postinjection in lungs
Type: ADME, organism-based, Lung
Conditions: in vivo

Substance	ID/g
N-methyl-3-azapentane-1,5-dithiol complex [listing 1 of 3 here]	1.96%
N-methyl-3-azapentane-1,5-dithiol complex [listing 2 of 3 here]	3.4%
N-methyl-3-azapentane-1,5-dithiol complex [listing 3 of 3 here]	5.5%

Test: Biodistribution after 6 hours of postinjection in melanoma
Type: ADME, organism-based
Conditions: in vivo

Substance	ID/g
N-methyl-3-azapentane-1,5-dithiol complex [listing 1 of 3 here]	3.13%
N-methyl-3-azapentane-1,5-dithiol complex [listing 2 of 3 here]	2.83%
N-methyl-3-azapentane-1,5-dithiol complex [listing 3 of 3 here]	1.39%

Test: Biodistribution after 6 hours of postinjection in spleen
Type: ADME, organism-based
Conditions: in vivo

Substance	ID/g
N-methyl-3-azapentane-1,5-dithiol complex [listing 1 of 3 here]	0.7%
N-methyl-3-azapentane-1,5-dithiol complex [listing 2 of 3 here]	1.66%
N-methyl-3-azapentane-1,5-dithiol complex [listing 3 of 3 here]	1.44%

Test: Partition coefficient (logD7.4)
Type: physicochemical
Conditions: octanol/water, pH 7.4

Substance	logD
N-methyl-3-azapentane-1,5-dithiol complex [listing 1 of 3 here]	0 pH7.4
N-methyl-3-azapentane-1,5-dithiol complex [listing 2 of 3 here]	1.6 pH7.4
N-methyl-3-azapentane-1,5-dithiol complex [listing 3 of 3 here]	0.95 pH7.4

Test: Biodistribution after 1 hour of postinjection in melanoma/blood
Type: ADME, organism-based
Conditions: in vivo

Substance	Ratio
N-methyl-3-azapentane-1,5-dithiol complex [listing 1 of 3 here]	1.6

Test: Biodistribution after 1 hour of postinjection in melanoma/lungs
Type: ADME, organism-based, Lung
Conditions: in vivo

Substance	Ratio
N-methyl-3-azapentane-1,5-dithiol complex [listing 1 of 3 here]	4.5

Test: Biodistribution after 1 hour of postinjection in melanoma/spleen
Type: ADME, organism-based
Conditions: in vivo

Substance	Ratio
N-methyl-3-azapentane-1,5-dithiol complex [listing 2 of 3 here]	1.1

Test: Biodistribution after 6 hours of postinjection in melanoma/blood
Type: ADME, organism-based
Conditions: in vivo

Substance	Ratio
N-methyl-3-azapentane-1,5-dithiol complex [listing 1 of 3 here]	2.3
N-methyl-3-azapentane-1,5-dithiol complex [listing 2 of 3 here]	1.4

Test: Biodistribution after 6 hours of postinjection in melanoma/lungs
Type: ADME, organism-based, Lung
Conditions: in vivo

Substance	Ratio
N-methyl-3-azapentane-1,5-dithiol complex [listing 1 of 3 here]	1.2

Test: Biodistribution after 6 hours of postinjection in melanoma/spleen
Type: ADME, organism-based
Conditions: in vivo

Substance	Ratio
N-methyl-3-azapentane-1,5-dithiol complex [listing 1 of 3 here]	4.5
N-methyl-3-azapentane-1,5-dithiol complex [listing 2 of 3 here]	1.7
N-methyl-3-azapentane-1,5-dithiol complex [listing 3 of 3 here]	< 1

Test: Biodistribution after 6 hours of postinjection in muscle
Type: ADME, organism-based, Muscle tissue
Conditions: in vivo

Substance	ID/g
N-methyl-3-azapentane-1,5-dithiol complex [listing 1 of 3 here]	0.39%

Test: aqueous ionization constant (pKa) determined by HPLC methods
Type: physicochemical
Conditions: buffer

Substance	pKa
N-methyl-3-azapentane-1,5-dithiol complex [listing 1 of 3 here]	9.7
N-methyl-3-azapentane-1,5-dithiol complex [listing 2 of 3 here]	8.3
N-methyl-3-azapentane-1,5-dithiol complex [listing 3 of 3 here]	9.6
